From patent US10512676B2, “Formulations comprising recombinant acid alpha-glucosidase” (Amicus Therapeutics, Inc., priority 2016, dated 2019)
Values belong to the molecule of their own block, whether it stands above or below them.

Assays:
[1] = Plasma miglustat pharmacokinetics, phase 1/2 study in adults with Pompe disease; format: in vivo, human; conditions: for CL/F: arithmetic mean (CV %)
Procedure: Mean total GAA protein and miglustat PK results from the first 8 Cohort 1 patients through Visit 9 and the first 2 Cohort 3 patients were assessed.

CIMPR = CIMPR (Homo sapiens, UniProt P11717); assay: CIMPR affinity chromatography (CIMPR column, free M6P gradient); format: binding; conditions: fraction of total enzyme by GAA activity; for rhGAA that did not bind to the CIMPR: eluted prior to addition of M6P
Chain of CIMPR (P11717 41-2491, species assumed): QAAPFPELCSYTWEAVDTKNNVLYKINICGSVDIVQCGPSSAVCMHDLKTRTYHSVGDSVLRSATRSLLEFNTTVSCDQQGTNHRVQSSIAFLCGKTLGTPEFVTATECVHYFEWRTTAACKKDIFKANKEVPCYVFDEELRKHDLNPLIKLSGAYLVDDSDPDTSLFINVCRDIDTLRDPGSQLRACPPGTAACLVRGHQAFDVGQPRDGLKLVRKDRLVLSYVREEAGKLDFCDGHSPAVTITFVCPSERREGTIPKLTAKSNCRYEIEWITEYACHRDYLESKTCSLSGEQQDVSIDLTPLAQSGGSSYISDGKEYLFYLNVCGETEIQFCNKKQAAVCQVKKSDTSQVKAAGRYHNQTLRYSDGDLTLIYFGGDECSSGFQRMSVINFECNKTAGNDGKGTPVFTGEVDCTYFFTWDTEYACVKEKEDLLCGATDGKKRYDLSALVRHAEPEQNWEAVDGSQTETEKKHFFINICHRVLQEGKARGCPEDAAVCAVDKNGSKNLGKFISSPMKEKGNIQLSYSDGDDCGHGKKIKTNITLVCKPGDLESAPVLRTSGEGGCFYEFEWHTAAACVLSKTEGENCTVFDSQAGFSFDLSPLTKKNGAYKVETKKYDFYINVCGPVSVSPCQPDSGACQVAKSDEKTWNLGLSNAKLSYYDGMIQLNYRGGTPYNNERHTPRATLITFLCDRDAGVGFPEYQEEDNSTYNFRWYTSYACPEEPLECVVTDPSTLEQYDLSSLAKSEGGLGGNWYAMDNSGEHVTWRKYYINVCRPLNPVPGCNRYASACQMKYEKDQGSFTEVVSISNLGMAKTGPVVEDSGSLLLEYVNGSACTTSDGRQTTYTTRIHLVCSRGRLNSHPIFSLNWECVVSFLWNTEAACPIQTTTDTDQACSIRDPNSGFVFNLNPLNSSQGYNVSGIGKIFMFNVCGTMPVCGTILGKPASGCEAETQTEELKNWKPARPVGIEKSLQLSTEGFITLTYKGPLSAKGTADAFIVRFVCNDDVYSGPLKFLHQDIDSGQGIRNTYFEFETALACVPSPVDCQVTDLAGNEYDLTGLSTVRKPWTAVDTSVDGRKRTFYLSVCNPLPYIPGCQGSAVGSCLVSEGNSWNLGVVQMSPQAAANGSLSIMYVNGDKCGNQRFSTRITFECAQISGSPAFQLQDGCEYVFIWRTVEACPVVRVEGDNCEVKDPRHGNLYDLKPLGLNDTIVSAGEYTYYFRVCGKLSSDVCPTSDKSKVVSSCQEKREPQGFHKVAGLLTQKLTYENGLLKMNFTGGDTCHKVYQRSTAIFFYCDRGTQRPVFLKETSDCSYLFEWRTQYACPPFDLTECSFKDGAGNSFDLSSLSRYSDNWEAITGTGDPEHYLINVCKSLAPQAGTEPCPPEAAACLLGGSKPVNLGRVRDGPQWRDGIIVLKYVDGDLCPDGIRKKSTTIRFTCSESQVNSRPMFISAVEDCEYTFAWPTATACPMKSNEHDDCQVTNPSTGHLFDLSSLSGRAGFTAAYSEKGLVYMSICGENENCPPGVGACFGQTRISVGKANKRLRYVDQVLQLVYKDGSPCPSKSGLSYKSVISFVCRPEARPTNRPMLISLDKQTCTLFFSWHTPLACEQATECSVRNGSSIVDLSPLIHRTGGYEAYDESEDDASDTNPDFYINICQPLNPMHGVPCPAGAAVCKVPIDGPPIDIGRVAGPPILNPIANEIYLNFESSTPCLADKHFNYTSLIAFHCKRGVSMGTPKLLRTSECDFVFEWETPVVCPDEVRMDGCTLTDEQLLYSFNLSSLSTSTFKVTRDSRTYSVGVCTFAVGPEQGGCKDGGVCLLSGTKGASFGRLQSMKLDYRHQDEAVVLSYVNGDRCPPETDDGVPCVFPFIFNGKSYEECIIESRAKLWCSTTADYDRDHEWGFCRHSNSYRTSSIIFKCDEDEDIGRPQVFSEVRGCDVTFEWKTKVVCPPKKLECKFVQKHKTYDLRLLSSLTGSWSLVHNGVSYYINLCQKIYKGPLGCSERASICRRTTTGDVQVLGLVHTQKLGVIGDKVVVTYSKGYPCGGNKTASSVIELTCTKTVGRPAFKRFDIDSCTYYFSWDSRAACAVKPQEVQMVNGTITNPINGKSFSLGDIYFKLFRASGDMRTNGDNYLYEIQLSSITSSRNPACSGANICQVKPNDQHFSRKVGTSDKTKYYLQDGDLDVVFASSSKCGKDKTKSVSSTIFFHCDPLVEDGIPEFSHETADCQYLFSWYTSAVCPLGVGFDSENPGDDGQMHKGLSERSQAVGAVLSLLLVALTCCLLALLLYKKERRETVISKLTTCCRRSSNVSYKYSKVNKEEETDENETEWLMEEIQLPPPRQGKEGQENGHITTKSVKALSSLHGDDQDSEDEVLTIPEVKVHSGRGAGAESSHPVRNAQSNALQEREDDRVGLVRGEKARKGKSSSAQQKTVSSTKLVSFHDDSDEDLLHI
Procedure: To evaluate the ability of the rhGAA in Myozyme® and Lumizyme®, the only currently approved treatments for Pompe disease, these rhGAA preparations were injected onto a CIMPR column (which binds rhGAA having M6P groups) and subsequently eluted with a free […] gradient. Fractions were collected in 96-well plate and GAA activity assayed by 4MU-α-glucose substrate. The relative amounts of bound and unbound rhGAA were determined based on GAA activity and reported as the fraction of total enzyme.

[2] = test system: normal and Pompe fibroblast cell lines; assay: Cellular uptake of rhGAA in normal and Pompe fibroblast cell lines; format: cell-based
Procedure: The relative cellular uptake of ATB200 and Lumizyme® rhGAA were compared using normal and Pompe fibroblast cell lines. […] After 16-hr incubation, external rhGAA was inactivated with TRIS base and cells were washed 3-times with PBS prior to harvest. Internalized GAA measured by 4MU-α-Glucoside hydrolysis and was graphed relative to total cellular protein and the results appear in FIGS. 11A-B.

Gaa KO mice = assay: Muscle function in Gaa-knockout mice, 12 biweekly administrations (grip strength, wire hang); format: in vivo, mouse; conditions: 12 biweekly administrations, ERT 20 mg/kg (miglustat 10 mg/kg)
Text: In FIG. 18A, * indicates statistically significant compared to Lumizyme® alone (p<0.05, 2-sided t-test). In FIGS. 19A-19G, * indicates statistically significant compared to Lumizyme® alone (p<0.05, multiple comparison using Dunnett's method under one-way ANOVA analysis).

[3] = Apparent plasma half-life in vivo

plasma miglustat kinetics ([1]; 130 mg and 260 mg oral): dose-proportional kinetics
CL/F ([1]; High MD): 10.3 (26.4) L/h
CL/F ([1]; High SD): 10.6 (33) L/h
CL/F ([1]; Low MD): 10.2 (23.9) L/h
CL/F ([1]; Low SD): 10.6 (23) L/h
Molecule: CCCCN1C[C@H](O)[C@@H](O)[C@H](O)[C@H]1CO [Miglustat, miglustat]

rhGAA that contained M6P / bound CIMPR (eluted with M6P) (CIMPR): 22%
rhGAA that did not bind to the CIMPR (CIMPR): 78%
Molecule: Lumizyme®: conventional rhGAA product containing alglucosidase alfa, Genzyme
concentration that saturates cellular receptors ([2]; 16-hr incubation): about 250 nM
uptake efficiency constant (Kuptake) ([2]; extrapolated, FIG. 11C): 56 nM
functional muscle strength (grip strength and wire hang tests) (Gaa KO mice): observed to decline under identical conditions throughout most of the study

rhGAA that contained M6P / bound CIMPR (eluted with M6P) (CIMPR): 27%
rhGAA that did not bind to the CIMPR (CIMPR): 73%
Molecule: Myozyme®: conventional rhGAA product containing alglucosidase alfa, Genzyme

Molecule: [199-arginine,223-histidine]prepro-α-glucosidase (human) [alglucosidase alfa, reference compound]
apparent plasma half-life (t1/2) [3]: ~1 h
